Experimental data as given in US5665346A, “Human interleukin-8 analogs” (dated 1997).
Like-named read-outs stand apart in the source and are kept apart here.

Tests used:
[1] = target: human neutrophils (receptor sites for IL-8 on neutrophils) (human); test: competition with 125I-IL-8 1-72 on human neutrophils, LIGAND fit
human neutrophils [2] = assay type: cell-based, human neutrophils from donor blood buffy coats; details: read-out: Elastase ED50; n = 3
Excerpt: (§1) In a valuable aspect of the present invention, there are provided IL-8 analogs that are antagonists of IL-8 activity. Antagonists of IL-8 activity are characterized by the ability to reduce one or more of the measurable consequences of IL-8-mediated neutrophil stimulation. Biological assays are known which may be used to test for IL-8 activities or an ability to block or inhibit IL-8. The in vitro assays require human neutrophils which may be isolated from donor blood by known procedures such as that described by Peveri, et al (1988) J. Exp. Med. 167: 1547-1559. The assays include measurement of elastase release, cytosolic free calcium changes, and chemotaxis and may be performed according to methods described by Schroder, et al (1987) J. Immunol. 139: 3474-3483; and, Peveri, et al (1988) [supra].
(§2) For the biological assays referred to in the following examples, human neutrophils isolated from buffy coats of donor blood were placed in a final suspension of 10^8 cells/ml kept at 0.15mM MaCl, 0.05 mM CaCl2 at 10° C. until use. Competition binding studies were performed according to the following protocol. IL-8 was iodinated with Enzymobead reagent (Bio-Rad) as instructed by the supplier. Briefly, 1 nmol of IL-8 was mixed with 50 µl of rehydrated Enzymobead reagent, 50 µl of 0.2M potassium phosphate, pH 7.2, 2 mCl or Na^125 I, and […] of 2% D(+)-glucose and incubated for 30 min at 21° C. […] The ^125 I-IL-8 preparations were each analyzed for purity (SDS-polyacrylamide gel electrophoresis) and binding capacity (self-displacement analysis using freshly isolated human neutrophils) prior to use. Neutrophils ([…]) in 120 µl of RPMI 1640 medium containing 20 mM Hepes, pH 7.3, and 10 mg/ml BSA (binding medium) are incubated on ice (0°-4° C.) for 90 min with 1 nM ^125 I-IL-8 in the presence or absence of cold competitor (10^-11 to 10^-5). Cells are separated from unbound radioactivity by centrifugation for 1 min at 8000× g through 350 µl of phosphate-buffered saline (PBS) containing 60 mg/ml BSA (wash medium) in a Hettich Microliter centrifuge model 2020. The supernatant is aspirated, and the bottom of the tubes containing the cell sediment is sliced off and counted in a MR 480 automated µ counter (kontron). The Kd values were determined by calculating nonlinear least squares fits of the measured data, based on a single binding site model, and determining the Kd using a LIGAND program as described by Moser, et al (1991) J. Biol. Chem. 266: 10666-10671.
(§3) Cytokine analogs formed from the monomers described in Table 1 were compared for biological activity according to in vitro assays described herein. […] The binding dissociation constants (Kd values) were calculated from the competitive binding data shown in FIGS. 5 and 6 as described above.
(§4) Shown are determinations at the indicated concentrations of IL-8 1-72: .oval-solid., 1-72; .tangle-solidup., 3-72; .increment., 4-72; .diamond., 5-72; .box-solid., 6-72; .quadrature., 7-72; and .smallcircle., 77-residue IL-8. Unidirectional error bars indicate the standard deviations. Data are representative of three assays using different neutrophil preparations.
FIG. 3 is a graph showing neutrophil elastase release activity of COOH-terminal deletion IL-8 analogs. Shown are determinations at the indicated concentrations of IL-8 1-72: .oval-solid., 1-72; .smallcircle., 1-69; .tangle-solidup., 1-66; .increment., 1-63; .box-solid., 1-60; .quadrature., 1-58; .diamond., 1-54; and X, 1-51. Unidirectional error bars indicate the standard deviations. Data are representative of three assays using different neutrophil preparations.

human neutrophils [3] = assay type: cell-based, human neutrophils from donor blood buffy coats; details: read-out: Chemotaxis ED50; n = 3
Excerpt: as §1, §2, §3
as §4, with “FIG. 2 is a graph showing neutrophil chemotaxis activity of NH2 -terminal deletion IL-8 analogs. The chemotaxis index (stimulated migration/control random migration) was determined” for “Shown are determinations”
FIG. 4 is a graph showing neutrophil chemotaxis activity of the COOH-terminal deletion IL-8 analogs. The chemotactic index (stimulated migrations/control random migration) was determined at the indicated concentrations of IL-8 1-72: .oval-solid., 1-72; .smallcircle., 1-69; .tangle-solidup., 1-66; .increment., 1-63; .box-solid., 1-60; .quadrature., 1-58; .diamond., 1-54; and X, 1-51. Unidirectional error bars indicate the standard deviations. Data are representative of three assays using different neutrophil preparations.

[4] = target: human neutrophils (receptor sites for IL-8 on neutrophils) (human); test: competition with 125I-IL-8 on human neutrophils
human neutrophils [5] = assay type: cell-based, human neutrophils from donor blood buffy coats; details: read-out: Binding Kd
Experimental: For the biological assays referred to in the following examples, human neutrophils isolated from buffy coats of donor blood were placed in a final suspension of 10^8 cells/ml kept at 0.15mM MaCl, 0.05 mM CaCl2 at 10° C. until use. Competition binding studies were performed according to the following protocol. […] C. […] Cells are separated from unbound radioactivity by centrifugation for 1 min at 8000× g through 350 µl of phosphate-buffered saline (PBS) containing 60 mg/ml BSA (wash medium) in a Hettich Microliter centrifuge model 2020. The supernatant is aspirated, and the bottom of the tubes containing the cell sediment is sliced off and counted in a MR 480 automated µ counter (kontron). The Kd values were determined by calculating nonlinear least squares fits of the measured data, based on a single binding site model, and determining the Kd using a LIGAND program as described by Moser, et al (1991) J. Biol. Chem. 266: 10666-10671.
as §3

human neutrophils [6] = assay type: cell-based, human neutrophils from donor blood buffy coats
Experimental: For the biological assays referred to in the following examples, human neutrophils isolated from buffy coats of donor blood were placed in a final suspension of 10^8 cells/ml kept at 0.15mM MaCl, 0.05 mM CaCl2 at 10° C. until use. Competition binding studies were performed according to the following protocol. […] C. […] The supernatant is aspirated, and the bottom of the tubes containing the cell sediment is sliced off and counted in a MR 480 automated µ counter (kontron).
(§5) The effect of amino acid replacement on the activity of interleukin-8 analogues was also explored, using compounds prepared by t-boc-based solid phase peptide synthesis.

human neutrophils [7] = assay type: cell-based, human neutrophils from donor blood buffy coats; details: read-out: IC50 (µM)
Experimental: Analog cytokines having residues 5-72; 6-72; and 7-72; respectively, were synthesized according to the method described herein. […] The assay was performed as previously described and elastase release is expressed in relative fluorescence units (1 unit=1 pMol 7-amino-4-methylcoumarine produced min). Mean values were determined from duplicate determinations form one out of three similar experiments performed with different neutrophil preparations.
as §5

Molecule	EC50 (human neutrophils [2]) [nM]	EC50 (human neutrophils [3]) [nM]	Kd [4] [nM]	Kd (human neutrophils [6]) [nM]	also measured
77-residue IL-8 (ligand)	–	–	–	–	Kd [1]: 0.35 nM
IL-8 (1-72), SEQ ID NO: 1, Ser-Ala-Lys-Glu-Leu-Arg-Cys-Gln-Cys... [reference compound]	13	0.36	–	–	–
IL-8 (4-72) (ligand)	–	–	0.22	–	Kd [1]: 0.22 nM
IL-8 (4-72), SEQ ID NO: 2, Glu-Leu-Arg-Cys-Gln-Cys...	4.5	0.25	–	0.22	Kd (human neutrophils [5]): 0.22 nM
IL-8 (5-72) (ligand)	–	–	0.8	–	Kd [1]: 0.76 nM
IL-8 (5-72), SEQ ID NO: 9, Leu-Arg-Cys-Gln-Cys...	1000	0.48	–	0.8	Kd (human neutrophils [5]): 0.76 nM
IL-8 (6-72) (ligand)	–	–	50	–	Kd [1]: 31 nM
IL-8 (6-72), SEQ ID NO: 12, Arg-Cys-Gln-Cys...	–	–	–	50	Kd (human neutrophils [5]): 31 nM; IC50 (human neutrophils [7]): 0.3 µM
IL-8 (7-72) (ligand)	–	–	> 10000	–	–
IL-8 (7-72), SEQ ID NO: 13, Cys-Gln-Cys...	–	–	–	> 10000	–
IL-8 residues 1-51	680	7.1	–	–	Kd (human neutrophils [5]): 17 nM
IL-8 residues 1-54	580	6.7	–	–	Kd (human neutrophils [5]): 10 nM
IL-8 residues 1-58	680	8.9	–	–	–
IL-8 residues 1-60	220	3.9	–	–	–
IL-8 residues 1-63	150	1.7	–	–	–
IL-8 residues 1-66	13	0.32	–	–	–
IL-8 residues 1-69	7.5	0.14	–	–	–
IL-8 residues 3-72	2.5	0.21	–	–	–

Molecule	EC50 (human neutrophils [2]) [nM]	EC50 (human neutrophils [3]) [nM]	Kd [4] [nM]	Kd (human neutrophils [6]) [nM]	also measured
IL-8 with 5 additional NH2-terminal residues [77-residue IL-8]	25	0.69	–	–	Kd (human neutrophils [5]): 0.35 nM
IL-8, AAR (7-72) (ligand)	–	–	7.9	–	–
IL-8, ELK (7-72) (ligand)	–	–	220	–	–
IL-8, ELL (7-72) (ligand)	–	–	1290	–	–
IL-8, ELNle (7-72) (ligand)	–	–	170	–	–
IL-8, ELOrn (7-72) (ligand)	–	–	400	–	–
IL-8, ELQ (7-72) (ligand)	–	–	650	–	–
IL-8, IR (7-72) (ligand)	–	–	16	–	–
IL-8, QR (7-72) (ligand)	–	–	34	–	–
SEQ ID NO: 3, Glu-Leu-Gln-Cys-Gln-Cys... [IL-8, ELQ (7-72)]	–	–	–	650	IC50 (human neutrophils [7]): 1.1 µM
SEQ ID NO: 4, Glu-Leu-Leu-Cys-Gln-Cys... [IL-8, ELL (7-72)]	–	–	–	1290	IC50 (human neutrophils [7]): 0.7 µM
SEQ ID NO: 5, Glu-Leu-Lys-Cys-Gln-Cys... [IL-8, ELK (7-72)]	–	–	–	220	IC50 (human neutrophils [7]): 1.8 µM
SEQ ID NO: 7, Glu-Leu-Nle-Cys-Gln-Cys... (Nle = norleucine) [IL-8, ELNle (7-72)]	–	–	–	170	IC50 (human neutrophils [7]): 1 µM
SEQ ID NO: 8, Ala-Ala-Arg-Cys-Gln-Cys... [IL-8, AAR (7-72)]	–	–	–	7.9	IC50 (human neutrophils [7]): 0.3 µM
SEQ ID NO: 10, Ile-Arg-Cys-Gln-Cys... [IL-8, IR (7-72)]	–	–	–	16	IC50 (human neutrophils [7]): 0.3 µM
SEQ ID NO: 11, Gln-Arg-Cys-Gln-Cys... [IL-8, QR (7-72)]	–	–	–	34	IC50 (human neutrophils [7]): 2.1 µM
IL-8 1-51 (ligand) SAKELRCQCIKTYSKPFHPKFIKELRVIESGPHCANTEIIVKLSDGRELCL	–	–	–	–	Kd [1]: 17 nM
IL-8 1-54 (ligand) SAKELRCQCIKTYSKPFHPKFIKELRVIESGPHCANTEIIVKLSDGRELCLDPK	–	–	–	–	Kd [1]: 10 nM
